As usually defined, the EC50 is the concentration needed to bring the measured effect to its halfway point.

Starred links: 1 amine or outer side, 2 acyl side, 3 side chain; linkers in the order of their positions; H or OH if unused. Non-standard residues stand in square brackets, D forms with d. Residues, ends and D or L forms follow the SMILES beside them. *: point of attachment. Trp(7-Me) = Cc1cccc2c(C[C@H](N)C(=O)O)c[nH]c12; C20 diacid = O=C(O)CCCCCCCCCCCCCCCCCCC(=O)*; d(γGlu) = O=C(O)[C@@H](CCC(=O)[*:2])N[*:1]; C18 diacid = O=C(O)CCCCCCCCCCCCCCCCC(=O)*; γGlu = O=C(O)[C@H](CCC(=O)[*:2])N[*:1]; 2Nal = N[C@@H](Cc1ccc2ccccc2c1)C(=O)O; 3Pal = N[C@@H](Cc1cccnc1)C(=O)O; Nle = CCCC[C@H](N)C(=O)O; AEEA = NCCOCCOCC(=O)O; βAla = NCCC(=O)O; Sar = CNCC(=O)O

In the assay the target is T1, human GRP receptors (Homo sapiens, UniProt P30550).
T1 construct: host or cells: U2OS
T1 sequence (P30550 whole entry): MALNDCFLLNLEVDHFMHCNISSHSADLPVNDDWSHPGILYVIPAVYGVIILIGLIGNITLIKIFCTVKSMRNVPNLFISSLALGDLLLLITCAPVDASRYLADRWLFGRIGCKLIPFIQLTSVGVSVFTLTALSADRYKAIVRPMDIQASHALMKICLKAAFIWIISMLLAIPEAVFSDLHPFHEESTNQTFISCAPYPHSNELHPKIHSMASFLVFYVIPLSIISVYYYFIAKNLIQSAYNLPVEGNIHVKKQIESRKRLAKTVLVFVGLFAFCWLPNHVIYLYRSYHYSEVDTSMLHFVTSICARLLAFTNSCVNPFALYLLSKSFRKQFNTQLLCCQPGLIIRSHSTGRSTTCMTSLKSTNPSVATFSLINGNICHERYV
The assay can be described thus: IP1 GRPR activity: HTRF IP1-Gq assay in U2OS cells stably expressing human GRP receptors. The class given is cell-based. Particulars: 90 minutes incubation, read-out: hIP1 GRPR EC50. The protocol: U2OS cells stably expressing human GRP receptors (DiscoverX, #93-0229C3) were cultured according to manufacturer's instructions. Cells were cultured to […], then collected using AccuTase (Innovative Cell Technologies, #AT104). Cells were washed and plated on a poly-D-lysine-coated 384-well plate (ThermoFisher, #A3890401) at a density of 2,500 cells/well in […] assay buffer (AssayComplete Cell Plating 5 Reagent, DiscoverX #93-0563R5), then incubated overnight at 37° C. and 5% C02. The following morning, a homogenous time-resolved fluorescence (HTRF) assay was performed in a 384-well plate format using the IP1-Gq assay kit (Cisbio, 62IPAPEB). Test compounds were made as a stock in DMSO, then serially diluted to generate 10-point dose response curves in IP1 stimulation buffer. Five microliters of the prepared compounds were then added to the plate containing cells and assay buffer in duplicate, and the cells were incubated at 37° C. and 5% CO2 for 90 minutes. Following compound incubation, […] of IP1 lysis/detection buffer (prepared according to manufacturer's instructions) was added to each well, and the plates were incubated at room temperature for 1 hour. HTRF signals were measured using a plate reader (ClarioSTAR), calculating the ratio between emissions at 665 nm and 620 nm (HTRF ratio). HTRF ratio for positive (Max, […]; SEQ ID NO. 45) and negative (Min, DMSO) controls were used to normalize HTRF data and generate values for % activity. EC50 and Max activity values were determined using a standard 4-parameter fit using GraphPad Prism.
In the case of `CCCC[C@H](NC(=O)[C@H](CC(C)C)NC(=O)[C@H](Cc1c[nH]cn1)NC(=O)[C@@H](C)NC(=O)[C@@H](NC(=O)[C@H](C)NC(=O)[C@H](Cc1c[nH]cn1)NC(=O)[C@H](Cc1c[nH]cn1)NC(=O)[C@H](CC(N)=O)NC(=O)CNC(=O)COCCOCCNC(=O)COCCOCCNC(=O)CC[C@@H](NC(=O)CCCCCCCCCCCCCCCCC(=O)O)C(=O)O)C(C)C)C(N)=O` [Peptide 68, Octadecanedioyl-D-γGlu-OEG-OEG-Gly-Asn-His-His-Ala-Val-D-Ala-His-Leu-Nle-NH2] ({C18 diacid-d(γGlu)-AEEA-AEEA}-GNHHAV[dA]HL[Nle]-NH2), the EC50 is over 10 µM.

In the case of `CC(C)C[C@H](NC(=O)[C@H](Cc1c[nH]cn1)NC(=O)[C@@H](C)NC(=O)[C@@H](NC(=O)[C@H](C)NC(=O)[C@H](Cc1c[nH]c2ccccc12)NC(=O)[C@H](Cc1c[nH]cn1)NC(=O)[C@H](CC(N)=O)NC(=O)CNC(=O)COCCOCCNC(=O)COCCOCCNC(=O)CC[C@@H](NC(=O)CCCCCCCCCCCCCCCCC(=O)O)C(=O)O)C(C)C)C(=O)N[C@@H](CCCNC(=N)N)C(N)=O` [Peptide 69, Octadecanedioyl-D-γGlu-OEG-OEG-Gly-Asn-His-Trp-Ala-Val-D-Ala-His-Leu-Arg-NH2] ({C18 diacid-d(γGlu)-AEEA-AEEA}-GNHWAV[dA]HLR-NH2), the EC50 is over 10 µM.

On to `CCCC[C@H](NC(=O)[C@H](CC(C)C)NC(=O)[C@H](Cc1c[nH]cn1)NC(=O)[C@@H](C)NC(=O)[C@@H](NC(=O)[C@H](C)NC(=O)[C@H](Cc1c[nH]c2ccccc12)NC(=O)[C@H](Cc1cccnc1)NC(=O)[C@H](CC(N)=O)NC(=O)CNC(=O)COCCOCCNC(=O)COCCOCCNC(=O)CC[C@@H](NC(=O)CCCCCCCCCCCCCCCCC(=O)O)C(=O)O)C(C)C)C(=O)N(C)CC(N)=O` [Peptide 72, Octadecanedioyl-D-γGlu-OEG-OEG-Gly-Asn-3Pal-Trp-Ala-Val-D-Ala-His-Leu-Nle-Sar-NH2] ({C18 diacid-d(γGlu)-AEEA-AEEA}-GN[3Pal]WAV[dA]HL[Nle][Sar]-NH2), for which the EC50 came to 1.05 µM.

Regarding `CCCC[C@H](NC(=O)[C@H](CC(C)C)NC(=O)[C@H](Cc1c[nH]cn1)NC(=O)[C@@H](C)NC(=O)[C@@H](NC(=O)[C@H](C)NC(=O)[C@H](Cc1ccc2ccccc2c1)NC(=O)[C@H](Cc1c[nH]cn1)NC(=O)[C@H](CC(N)=O)NC(=O)CNC(=O)COCCOCCNC(=O)COCCOCCNC(=O)CC[C@H](NC(=O)CCCCCCCCCCCCCCCCC(=O)O)C(=O)O)C(C)C)C(=O)N(C)CC(N)=O` [Peptide 99, Octadecanedioyl-γGlu-OEG-OEG-Gly-Asn-His-2Nal-Ala-Val-D-Ala-His-Leu-Nle-Sar-NH2] ({C18 diacid-γGlu-AEEA-AEEA}-GNH[2Nal]AV[dA]HL[Nle][Sar]-NH2), the EC50 is over 10 µM.

On to `CCCC[C@H](NC(=O)[C@H](CC(C)C)NC(=O)[C@H](Cc1c[nH]cn1)NC(=O)[C@@H](C)NC(=O)[C@@H](NC(=O)[C@H](C)NC(=O)[C@H](Cc1c[nH]cn1)NC(=O)[C@H](Cc1c[nH]cn1)NC(=O)[C@H](CC(N)=O)NC(=O)CNC(=O)COCCOCCNC(=O)COCCOCCNC(=O)CC[C@H](NC(=O)CCCCCCCCCCCCCCCCC(=O)O)C(=O)O)C(C)C)C(N)=O` [Peptide 107, Octadecanedioyl-γGlu-OEG-OEG-Gly-Asn-His-His-Ala-Val-D-Ala-His-Leu-Nle-NH2] ({C18 diacid-γGlu-AEEA-AEEA}-GNHHAV[dA]HL[Nle]-NH2), for which the EC50 was over 10 µM.

As for `CCCC[C@H](NC(=O)[C@H](CC(C)C)NC(=O)[C@H](Cc1c[nH]cn1)NC(=O)[C@@H](C)NC(=O)[C@@H](NC(=O)[C@H](C)NC(=O)[C@H](CCCNC(=N)N)NC(=O)[C@H](Cc1c[nH]cn1)NC(=O)[C@H](CC(N)=O)NC(=O)CNC(=O)COCCOCCNC(=O)COCCOCCNC(=O)CC[C@H](NC(=O)CCCCCCCCCCCCCCCCC(=O)O)C(=O)O)C(C)C)C(N)=O` [Peptide 108, Octadecanedioyl-γGlu-OEG-OEG-Gly-Asn-His-Arg-Ala-Val-D-Ala-His-Leu-Nle-NH2] ({C18 diacid-γGlu-AEEA-AEEA}-GNHRAV[dA]HL[Nle]-NH2), the EC50 was over 10 µM.

With `CCCC[C@H](NC(=O)[C@H](CC(C)C)NC(=O)[C@H](Cc1c[nH]cn1)NC(=O)[C@@H](C)NC(=O)[C@@H](NC(=O)[C@H](C)NC(=O)[C@H](Cc1c[nH]c2ccccc12)NC(=O)[C@H](Cc1c[nH]cn1)NC(=O)[C@H](CC(N)=O)NC(=O)CNC(=O)COCCOCCNC(=O)COCCOCCNC(=O)CC[C@H](NC(=O)CCCCCCCCCCCCCCCCC(=O)O)C(=O)O)C(C)C)C(=O)N[C@@H](CCCNC(=N)N)C(N)=O` [Peptide 114, Octadecanedioyl-γGlu-OEG-OEG-Gly-Asn-His-Trp-Ala-Val-D-Ala-His-Leu-Nle-Arg-NH2] ({C18 diacid-γGlu-AEEA-AEEA}-GNHWAV[dA]HL[Nle]R-NH2), the EC50 is over 10 µM.

On to `CCCC[C@H](NC(=O)[C@H](CC(C)C)NC(=O)[C@H](Cc1c[nH]cn1)NC(=O)[C@@H](C)NC(=O)[C@@H](NC(=O)[C@@H](C)NC(=O)[C@H](Cc1c[nH]c2ccccc12)NC(=O)[C@H](Cc1c[nH]cn1)NC(=O)[C@H](CC(N)=O)NC(=O)CNC(=O)COCCOCCNC(=O)COCCOCCNC(=O)CC[C@H](NC(=O)CCCCCCCCCCCCCCCCC(=O)O)C(=O)O)C(C)C)C(=O)N(C)CC(N)=O` [Peptide 115, Octadecanedioyl-γGlu-OEG-OEG-Gly-Asn-His-Trp-D-Ala-Val-D-Ala-His-Leu-Nle-Sar-NH2] ({C18 diacid-γGlu-AEEA-AEEA}-GNHW[dA]V[dA]HL[Nle][Sar]-NH2), for which the EC50 was over 10 µM.

`CCCC[C@H](NC(=O)[C@H](CC(C)C)NC(=O)[C@H](Cc1c[nH]cn1)NC(=O)[C@@H](C)NC(=O)[C@@H](NC(=O)[C@H](C)NC(=O)[C@H](Cc1c[nH]cn1)NC(=O)[C@H](Cc1c[nH]cn1)NC(=O)[C@H](CCCNC(=N)N)NC(=O)CNC(=O)COCCOCCNC(=O)COCCOCCNC(=O)CC[C@H](NC(=O)CCCCCCCCCCCCCCCCC(=O)O)C(=O)O)C(C)C)C(N)=O` [Peptide 116, Octadecanedioyl-γGlu-OEG-OEG-Gly-Arg-His-His-Ala-Val-D-Ala-His-Leu-Nle-NH2] ({C18 diacid-γGlu-AEEA-AEEA}-GRHHAV[dA]HL[Nle]-NH2): the EC50 was over 10 µM.

Regarding `CCCC[C@H](NC(=O)[C@H](CC(C)C)NC(=O)[C@H](Cc1c[nH]cn1)NC(=O)[C@@H](C)NC(=O)[C@@H](NC(=O)[C@H](C)NC(=O)[C@H](CCCNC(=N)N)NC(=O)[C@H](Cc1c[nH]cn1)NC(=O)[C@H](CC(N)=O)NC(=O)CNC(=O)COCCOCCNC(=O)COCCOCCNC(=O)CC[C@H](NC(=O)CCCCCCCCCCCCCCCCC(=O)O)C(=O)O)C(C)C)C(=O)N(C)CC(N)=O` [Peptide 130, Octadecanedioyl-γGlu-OEG-OEG-Gly-Asn-His-Arg-Ala-Val-D-Ala-His-Leu-Nle-Sar-NH2] ({C18 diacid-γGlu-AEEA-AEEA}-GNHRAV[dA]HL[Nle][Sar]-NH2), the EC50 is over 10 µM.

As for `CCCC[C@H](NC(=O)[C@H](CC(C)C)NC(=O)[C@H](Cc1c[nH]cn1)NC(=O)[C@@H](C)NC(=O)[C@@H](NC(=O)[C@@H](C)NC(=O)[C@H](Cc1c[nH]c2ccccc12)NC(=O)[C@H](Cc1c[nH]cn1)NC(=O)[C@H](CC(=O)O)NC(=O)CNC(=O)COCCOCCNC(=O)COCCOCCNC(=O)CC[C@H](NC(=O)CCCCCCCCCCCCCCCCC(=O)O)C(=O)O)C(C)C)C(N)=O` [Peptide 139, Octadecanedioyl-γGlu-OEG-OEG-Gly-Asp-His-Trp-D-Ala-Val-D-Ala-His-Leu-Nle-NH2] ({C18 diacid-γGlu-AEEA-AEEA}-GDHW[dA]V[dA]HL[Nle]-NH2), the EC50 is over 10 µM.

As for `CCCC[C@H](NC(=O)[C@H](CC(C)C)NC(=O)[C@H](Cc1c[nH]cn1)NC(=O)[C@@H](C)NC(=O)[C@@H](NC(=O)[C@H](C)NC(=O)[C@H](Cc1c[nH]c2ccccc12)NC(=O)[C@H](Cc1c[nH]cn1)NC(=O)[C@H](CC(N)=O)NC(=O)[C@H](CCCNC(=N)N)NC(=O)COCCOCCNC(=O)COCCOCCNC(=O)CC[C@H](NC(=O)CCCCCCCCCCCCCCCCC(=O)O)C(=O)O)C(C)C)C(=O)O` [Peptide 156, Octadecanedioyl-γGlu-OEG-OEG-Arg-Asn-His-Trp-Ala-Val-D-Ala-His-Leu-Nle] ({C18 diacid-γGlu-AEEA-AEEA}-RNHWAV[dA]HL[Nle]-OH), the EC50 was determined as 0.358 µM.

With `CCCC[C@H](NC(=O)[C@H](CC(C)C)NC(=O)[C@H](Cc1c[nH]cn1)NC(=O)CCNC(=O)[C@@H](NC(=O)[C@H](C)NC(=O)[C@H](Cc1c[nH]c2c(C)cccc12)NC(=O)[C@H](Cc1c[nH]cn1)NC(=O)[C@H](CCCNC(=N)N)NC(=O)CNC(=O)[C@H](CO)NC(=O)COCCOCCNC(=O)COCCOCCNC(=O)CC[C@H](NC(=O)CC[C@H](NC(=O)CCCCCCCCCCCCCCCCCCC(=O)O)C(=O)O)C(=O)O)C(C)C)C(N)=O` [Peptide 256, Eicosanedioyl-γGlu-Glu-OEG-OEG-Ser-Gly-Arg-His-7MeTrp-Ala-Val-β-Ala-His-Leu-Nle-NH2] ({C20 diacid-γGlu-γGlu-AEEA-AEEA}-SGRH[Trp(7-Me)]AV[βAla]HL[Nle]-NH2), the 50% effective concentration (EC50) stood at 0.0037 µM.

The values above are taken from patent US20260176319A1, “PEPTIDE ANALOGS AND METHODS OF USING THE SAME” (Kallyope, Inc., priority 2024, published 2026).
